Assay results taken from ChEMBL document CHEMBL4406807, “Discovery of 3,4,6-Trisubstituted Piperidine Derivatives as Orally Active, Low hERG Blocking Akt Inhibitors via Conformational Restriction and Structure-Based Design” (J Med Chem, 2019).

Columns and labels:
[1] = test system: LNCaP; assay: Antiproliferative activity against human LNCAP cells; type: functional, cell-based
[2] = target: hERG (KCNH2) (Homo sapiens, UniProt Q12809); assay: Inhibition of ERG in human HEK293 cells at 3 uM at -80 mV holding potential by whole-cell patch clamp assay relative to control; type: cell-based; details: HEK293 cells expressing ERG
[3] = test system: OVCAR-8; assay: Antiproliferative activity against human OVCAR8 cells; type: functional, cell-based
[4] = target: RAC-alpha serine/threonine-protein kinase (Homo sapiens, UniProt P31749)
Description: Inhibition of human Akt1 expressed in Escherichia coli using STK Substrate 2-biotin as substrate incubated for 1 hr by HTRF assay

[5] = test system: HCT-116; assay: cells; details: Homo sapiens, HCT-116, 72 h

Chain of hERG (KCNH2) (Q12809 whole entry): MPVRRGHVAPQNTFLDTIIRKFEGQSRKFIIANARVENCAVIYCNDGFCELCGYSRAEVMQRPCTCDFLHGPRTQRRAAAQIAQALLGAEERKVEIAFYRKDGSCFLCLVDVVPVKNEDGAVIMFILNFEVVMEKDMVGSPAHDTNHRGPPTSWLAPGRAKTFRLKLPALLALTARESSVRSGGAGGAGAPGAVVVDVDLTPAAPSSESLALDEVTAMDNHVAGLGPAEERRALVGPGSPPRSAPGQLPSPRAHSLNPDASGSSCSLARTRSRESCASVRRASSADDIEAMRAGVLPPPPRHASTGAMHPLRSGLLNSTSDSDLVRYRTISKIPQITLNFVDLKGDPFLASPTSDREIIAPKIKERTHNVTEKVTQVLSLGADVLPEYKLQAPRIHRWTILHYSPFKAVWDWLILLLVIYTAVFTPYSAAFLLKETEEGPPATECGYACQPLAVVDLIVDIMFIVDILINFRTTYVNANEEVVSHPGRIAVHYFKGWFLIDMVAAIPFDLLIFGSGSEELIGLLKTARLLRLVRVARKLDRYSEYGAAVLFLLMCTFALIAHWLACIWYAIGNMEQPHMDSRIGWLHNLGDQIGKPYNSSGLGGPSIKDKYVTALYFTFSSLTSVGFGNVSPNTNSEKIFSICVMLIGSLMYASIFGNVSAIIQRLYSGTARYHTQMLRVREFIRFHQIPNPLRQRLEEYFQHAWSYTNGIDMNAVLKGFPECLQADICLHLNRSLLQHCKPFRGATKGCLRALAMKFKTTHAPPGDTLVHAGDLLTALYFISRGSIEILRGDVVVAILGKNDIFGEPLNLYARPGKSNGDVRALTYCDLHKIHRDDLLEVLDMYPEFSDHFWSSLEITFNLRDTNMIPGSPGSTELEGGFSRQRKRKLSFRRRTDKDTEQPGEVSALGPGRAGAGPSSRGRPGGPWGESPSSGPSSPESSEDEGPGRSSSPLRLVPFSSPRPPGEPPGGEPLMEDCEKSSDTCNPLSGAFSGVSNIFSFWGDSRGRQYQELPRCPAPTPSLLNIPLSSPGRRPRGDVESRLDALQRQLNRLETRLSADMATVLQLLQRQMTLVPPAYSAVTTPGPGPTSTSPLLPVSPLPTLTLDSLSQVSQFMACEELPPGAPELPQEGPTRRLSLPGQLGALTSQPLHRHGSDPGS
Chain of RAC-alpha serine/threonine-protein kinase (P31749 whole entry): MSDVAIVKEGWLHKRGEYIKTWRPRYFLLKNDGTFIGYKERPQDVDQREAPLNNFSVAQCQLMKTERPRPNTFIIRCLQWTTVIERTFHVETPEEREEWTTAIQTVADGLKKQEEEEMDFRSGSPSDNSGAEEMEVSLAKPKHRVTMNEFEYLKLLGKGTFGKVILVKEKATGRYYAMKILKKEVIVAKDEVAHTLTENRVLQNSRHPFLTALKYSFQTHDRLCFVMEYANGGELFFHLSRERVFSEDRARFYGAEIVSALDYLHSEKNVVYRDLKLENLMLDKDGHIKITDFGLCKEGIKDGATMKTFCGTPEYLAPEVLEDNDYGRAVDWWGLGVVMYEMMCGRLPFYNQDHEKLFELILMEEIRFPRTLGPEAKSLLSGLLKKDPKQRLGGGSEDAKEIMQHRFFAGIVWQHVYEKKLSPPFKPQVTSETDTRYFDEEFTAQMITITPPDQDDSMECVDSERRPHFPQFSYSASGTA

Structure (SMILES) | IC50 [1] | IC50 [3] | IC50 [4] | IC50 [5] | inhibition at 3 µM [2]
Cn1ncc(Cl)c1-c1cc(C(=O)N[C@@H]2CN[C@H](CC(N)=O)C[C@H]2c2ccc(Cl)c(Cl)c2)oc1Cl | 160 nM | 1000 nM | 3.24 nM | 650 nM | 15.7%
CN(C)CC[C@@H]1C[C@@H](c2ccc(Cl)c(Cl)c2)[C@H](NC(=O)c2cc(-c3c(Cl)cnn3C)c(Cl)o2)CN1 | 1930 nM | 1510 nM | 3.4 nM | 1710 nM | 73.4%
CNC(=O)C[C@@H]1C[C@@H](c2ccc(Cl)c(Cl)c2)[C@H](NC(=O)c2cc(-c3c(Cl)cnn3C)c(Cl)o2)CN1 | 40 nM | 1130 nM | 2.64 nM | 450 nM | 45.9%
Cn1ncc(Cl)c1-c1cc(C(=O)N[C@@H]2CN[C@H](CC(O)CO)C[C@H]2c2ccc(F)c(F)c2)oc1Cl (stereo not given in full) | 100 nM | 690 nM | 3.31 nM | 800 nM | 4.7%
Cn1ncc(Cl)c1-c1cc(C(=O)N[C@@H]2CNCC[C@H]2c2ccc(Cl)c(Cl)c2)oc1Cl | 100 nM | 110 nM | 2.9 nM | 280 nM | 87%
Cn1ncc(Cl)c1-c1cc(C(=O)N[C@@H]2CN[C@H](CCn3cncn3)C[C@H]2c2ccc(Cl)c(Cl)c2)oc1Cl | 60 nM | 1560 nM | 4.47 nM | 560 nM | 50.1%

Further compounds by falling IC50 [1], results first:

IC50 [1] | IC50 [3] | IC50 [4] | IC50 [5] | Structure (SMILES) | inhibition at 3 µM [2]
410 nM | 1760 nM | 8.78 nM | 1560 nM | Cn1ncc(Cl)c1-c1cc(C(=O)N[C@@H]2CN[C@H](CCN3CCOCC3)C[C@H]2c2ccc(Cl)c(Cl)c2)oc1Cl | 82.3%
190 nM | 580 nM | 3.95 nM | 740 nM | Cn1ncc(Cl)c1-c1cc(C(=O)N[C@@H]2CN[C@H](CC(=O)NC3CC3)C[C@H]2c2ccc(Cl)c(Cl)c2)oc1Cl | 70.4%
160 nM | 610 nM | 2.74 nM | 340 nM | Cn1ncc(Cl)c1-c1cc(C(=O)N[C@@H]2CN[C@H](CCO)C[C@H]2c2ccc(Cl)c(Cl)c2)oc1Cl | 51.8%
130 nM | 880 nM | 2.49 nM | 920 nM | CC(=O)NCC[C@@H]1C[C@@H](c2ccc(F)c(F)c2)[C@H](NC(=O)c2cc(-c3c(Cl)cnn3C)c(Cl)o2)CN1 | 7.4%
70 nM | 1610 nM | 3.79 nM | 1110 nM | Cn1ncc(Cl)c1-c1cc(C(=O)N[C@@H]2CN[C@H](CC(O)CO)C[C@H]2c2ccc(Cl)c(Cl)c2)oc1Cl (stereo not given in full) | 17%
50 nM | 1530 nM | 3.29 nM | 920 nM | Cn1ncc(Cl)c1-c1cc(C(=O)N[C@@H]2CN[C@H](CCNS(C)(=O)=O)C[C@H]2c2ccc(F)c(F)c2)oc1Cl | 8%
40 nM | 1450 nM | 1.41 nM | 670 nM | Cn1ncc(Cl)c1-c1cc(C(=O)N[C@@H]2CN[C@H](CC(=O)NCCO)C[C@H]2c2ccc(Cl)c(Cl)c2)oc1Cl | 6.7%
